Experimental data from US20210145806A1, “Methods of Treating Brain Cancer and Related Diagnostic Methods” (Emory University, priority 2019, published 2021).
Entries after “also recorded” stand apart in the source; their conditions may differ. Like-named read-outs stand apart in the source and are kept apart here.

Columns and labels:
[1] = tested on: SmoA1 murine SHH-activated MB organotypic slice culture; assay: Murine MB organotypic slice culture (OSC), cell death by cleaved caspase 3 staining; conditions: 24 h treatment; for cell death (CC3 staining), result in words: relative to vehicle control; for concentration giving significant increase in cell death (CC3 standardized to DAPI): compared to control
[2] = tested on: MB tumor stem-like cells (nestin-positive) in SmoA1 OSCs; assay: SmoA1 OSC, CC3 and nestin co-staining (death of tumor stem-like cells); format: cell-based, mouse
Protocol: DAPI=nuclear stain, DMSO=vehicle. Treatment of human MB cells and SmoA1 OSCs with WP1066 in combination with fisetin further enhances the inhibition of cell proliferation in vitro induction of tumor cell death diffusely ex vivo, but synergistically kills the tumor stem-like cell population specifically.
Given that STA 3 and YB-1 expression colocalized to the cancer stem cell-like cells of the perivascular niche environment, experiments were performed to determine whether combined treatment with these inhibitors, fisetin and WPHH66, leads: to increased tumor cell and/or tumor stem cell like cell death. The effect of combination treatment was evaluated in the in vitro proliferation and colony formation assays. […] Next, experiments were performed to determine whether this effect was more pronounced in the stem cell compartment, where YB-1 and STAT3 are most highly expressed. SmoA1 MB ex vivo brain slices were treated with WP1066, fisetin, or combined treatment thereof. The slices were immunostained for the tumor stem-like cell marker nestin and the cell death marker CC3 to quantify the amount of cell death in the tumor stem-like cells.

[3] = tested on: patient-derived non-WNT/SHH MB OSC; assay: Patient-derived MB OSC, cell death by CC3 staining; format: cell-based, human; conditions: relative to vehicle controls
Protocol: Ex vivo, cultures can be used to evaluate drug effects on murine MB tumor cells in their microenvironment. Experiments were performed to determine whether OSC could be used as a “precision medicine” technique in medulloblastoma, e.g., whether biopsy sample from either a newly diagnosed or relapsed medulloblastoma patient could be directly obtained in the operating room, transferred to the lab, and OSCs generated and tested per the protocol, with readout of the efficacy of potential treatments within 3 days. After obtaining fresh tumor tissue from a newly diagnosed patient with a cerebellar tumor, an OSC assay using this patient-derived medulloblastoma specimen was performed. Four tumor slices were treated with vehicle (DMSO or PBS) and 6 tumor slices were treated with WP1066, fisetin, and cisplatin as positive control. […] Therefore this assay can be used at the time of diagnosis, indicating the feasibility of OSC for use in a personalized medicine based testing approach (FIG. 5C) in pediatric brain tumors. Later the neuropathology report confirmed isochromosome 17q in the specimen without MYC or MYCN amplification consistent with a non-WNT/SHH MB.

[4] = tested on: Group 3-like D556 MB cells; assay: Proliferation of Group 3-like MB cells
[5] = Homo sapiens, read-out: IC50, inhibition of proliferation, D556

| Compound | cell death (CC3 staining), result in words [1] | percentage of CC3/nestin-positive cells (dead nestin-positive cells) [2] | cell death (CC3 staining), result in words [3] | IC50 [4, 5] | IC50 ([4]; read-out: IC50, inhibition of proliferation, D556) | concentration giving significant increase in cell death (CC3 standardized to DAPI) [1] | cell death (CC3 staining), result in words ([3]; listed as Fisetin) |
| --- | --- | --- | --- | --- | --- | --- | --- |
| Nc1nc(=S)c2[nH]cnc2[nH]1 [6-thioguinine] | minimal increase in cell death | – | – | – | – | – | – |
| CS(=O)(=O)OCCCCOS(C)(=O)=O [Busulfan] | minimal increase in cell death | – | – | – | – | – | – |
| CC(NC(=O)C(C#N)=Cc1cccc(Br)n1)c1ccccc1 (stereo not shown) [WP1066, 3-(6-bromopyridin-2-yl)-2-cyano-N-(1-phenylethyl)acrylamide] | significantly increased cell death; also recorded: induces marked tumor cell death; also recorded: dose-dependent increase in cell death | 1.4% | induced cell death; also recorded: Increase in cell death | 1500 nM | 1200 nM | greater than 1.5 μM | – |
| N.N.[Cl][Pt][Cl] [cisplatin] | – | – | Increase in cell death | – | – | 2 µM | – |
| O=c1c(O)c(-c2ccc(O)c(O)c2)oc2cc(O)ccc12 [fisetin, 2-(3,4-dihydroxyphenyl)-3,7-dihydroxy-4H-chromen-4-one] | induces marked tumor cell death; also recorded: dose-dependent increase in cell death | 1.6% | Increase in cell death | 3600 nM | – | > 4 µM | induced cell death |
